Active and inactive are the calls of the source.
Experiments:
Staphylococcus aureus = assay: Antibacterial activity against […] at 100 ug after 24 hrs by agar well diffusion method; format: functional, organism-based
Bacillus cereus = assay: Antibacterial activity against Bacillus cereus at 100 ug after 24 hrs by agar well diffusion method; format: functional, organism-based
Proteus mirabilis = assay: Antibacterial activity against Proteus mirabilis at 100 ug after 24 hrs by agar well diffusion method; format: functional, organism-based
Streptococcus pyogenes = assay: Antibacterial activity against Streptococcus pyogenes at 100 ug after 24 hrs by agar well diffusion method; format: functional, organism-based
Salmonella typhi = assay: Antibacterial activity against Salmonella typhi at 100 ug after 24 hrs by agar well diffusion method; format: functional, organism-based; details: Salmonella enterica subsp. enterica serovar Typhi
Escherichia coli = assay: Antibacterial activity against Escherichia coli at 100 ug after 24 hrs by agar well diffusion method; format: functional, organism-based
[1] = Inhibition of alpha-glucosidase 4

C=C(C)[C@@H]1CC[C@]2(C)CC[C@]3(C)[C@H](CC[C@@H]4[C@@]5(C)CC[C@H](OC(=O)CCCCCCCCCCCCCCCCC)C(C)(C)[C@@H]5[C@@H](O)C[C@]43C)[C@@H]12
inactive: Activity (Staphylococcus aureus) | Activity (Bacillus cereus) | Activity (Proteus mirabilis) | Activity (Streptococcus pyogenes) | Activity (Salmonella typhi) | Activity (Escherichia coli)

C=C(C)[C@@H]1CC[C@]2(C)CC[C@]3(C)[C@H](CC[C@@H]4[C@@]5(C)CC[C@H](O)C(C)(C)[C@@H]5[C@@H](O)C[C@]43C)[C@@H]12
42.5 µM: IC50 [1]

— ChEMBL document CHEMBL1142635, “Lupene-type triterpenes from Periploca aphylla” (J Nat Prod, 2000)
